Test results published in PMC11491488 (Scientific Reports, 2024).

Columns and labels:
[1] = test system: gram-positive Staphylococcus aureus (S. aureus); experiment: MIC assay, percentage growth inhibition, serial dilution in 96-well plates; format: cell-based; conditions: for inhibition of bacterial cells: at higher concentrations
[2] = test system: gram-negative Pseudomonas aeruginosa (P. aeruginosa); experiment: as above; format: cell-based; conditions: for inhibition of bacterial cells: at higher concentrations

Compound | percent of S. aureus killed ([1]; 12 µg/mL) [%] | inhibition of bacterial cells [1] [%] | percent of P. aeruginosa killed ([2]; 4 µg/mL) [%] | inhibition of bacterial cells [2] [%] | inhibition at 128 µg/mL ([1]; Staphylococcus aureus, read-out: inhibitory effect against S. aureus) [%] | inhibition at 40 µg/mL ([2]; Pseudomonas aeruginosa, read-out: inhibitory effect against P. aeruginosa) [%]
O=C(O)c1cn(C2CC2)c2cc(N3CCNCC3)c(F)cc2c1=O [CIPRO, ciprofloxacin] | 98.30 ± 0.26 | 90 | 100.67 ± 0.39 | 90 | – | –
C[C@H]1COc2c(N3CCN(C)CC3)c(F)cc3c(=O)c(C(=O)O)cn1c23 [LEVO, levofloxacin] | – | 90 | – | 90 | – | –
CCn1cc(C(=O)O)c(=O)c2cc(F)c(N3CCNCC3)cc21 [NOR, norfloxacin] | – | 90 | – | 90 | 97.9 ± 0.38 | 100.4 ± 0.17
